Experimental data published in patent US11753411B2, “Substituted pyrazolo[1,5-a]pyrimidines as TYK2 pseudokinase ligands” (Ventyx Biosciences, Inc., priority 2019, dated 2023).

Tested on: IFN-a/Jak1 Tyk2
Experiment: Co-stimulation assay in lysed whole blood: IFNa (JAK1/TYK2) stimulated STAT1 phosphorylation
Assay type: cell-based
Conditions: Homo sapiens, 20 min, 100 ng/mL IFNa (with 10 ng/mL GM-CSF), pSTAT by flow cytometry
Experimental: Example 12: Co-Stimulation Assay in Lysed Whole Blood; JAK2: GM-CSF Stimulated STAT5 Phosphorylation and JAK1/TYK2 Stimulated STAT1 Phosphorylation Assay
Human Blood Lysis Using Abcam's RBC Lysis Buffer
Dilute RBC lysis buffer to 1× in distilled water. Add 2 mL blood to 38 mL of 1×RBC-lysis buffer. Incubate for 15 mins at RT, in dark. Spin at 300 g, 5 mins, to collect the pellet. Re-lyse if necessary. Re-suspend pellet in 5 mL of cRPMI.
Compound and Cytokine Treatment
Aliquot 80 μL of lysed human blood in to wells of 96 deep-well plate. Add 10 μl of (10× conc.) of different concentrations of compounds to all wells except controls (unstained and unstimulated) and mix it with the help of 100 uL multichannel. Add 10 uL of RPMI media in controls. For dilution of compounds and dilution range please refer Appendix. Incubate on water bath or CO2 incubator for 1 hour at 37° C. Add 10 μl of (10× conc.) of cytokine mix (GM-CSF and IFNa) (final conc.10 ng/mL of GM-CSF and 100 ng/mL of IFNa) to each well except unstimulated and unstained controls and incubate further for 20 minutes on water bath at 37° C.
Add 900 μL of prewarmed 1× Fix/Lyse solution (Appendix) and mix it properly using 1000 μl multichannel, incubate further on water bath at 37° C. for 10 minutes (which includes time of addition). Centrifuge at 800×g for 5 minutes at 40° C.; remove 900 uL of supernatant and add 900 μL of 1×PBS. Centrifuge at 800×g for 5 minutes at 40° C., remove 900 μL of supernatant. Wash one more time with 900 μL of PBS (optional) and resuspend pellets in 100 uL of PBS.
Disrupt the pellet by gentle tapping and resuspend in 1000 μL of BD Phosflow Perm Buffer III and incubate plate on ice for 30 minutes. Centrifuge plate at 800×g for 5 minutes at 40° C. Wash two more times with 1000 μL of BD Pharmingen Stain Buffer.
Disrupt the pellet by gentle tapping. Resuspend pellets in 100 uL of Stain Buffer and add 5 μL of pSTAT5_AF488 Ab and 5 uL of pSTAT_PE in all wells except unstained control and mix properly using 200 μl multichannel, incubate overnight at […]. Add 900 μL of wash buffer and centrifuge at 1800 rpm for 3 minutes at 40° C. Wash one more time with 1000 μL of BD Pharmingen Stain Buffer. Finally resuspend the pellet in 300 uL of BD Pharmingen Stain Buffer. Transfer the cells to 96-well v-bottom plate and acquire the cells in Beckman Coulter CytExpert. Acquiring cells in Flow Cytometer: Keep the threshold value to 250 and cell concentration should not exceed 100-500 cells/μL. Acquire at least 5,000-10,000 cells.
RPMI 1640 Complete Medium: RPMI 1640 media+10% FBS.
Cytokine dilution: 1) GM-CSF Stock at 100 ug/mL. Prepare an intermediate dilution of 1 ug/mL by adding 2 uL of stock into 198 uL of cRPMI. Further dilute to 100 ng/mL by adding 100 uL of the intermediate stock to 900 uL of cRPMI. 2) IFNa Stock at 200 ug/mL. Dilute IFNa stock 1:200 by adding 5 uL of stock into the 1000 uL of 100 ng/mL GM-CSF working stock as above to give a combined working stock of 1000 ng/mL of IFNa and 100 ng/mL GM-CSF (10×). Keep it on ice until used.
Lyse/Fix buffer preparation: Dilute 5× Lyse/Fix buffer to 1× using MQ water and keep at 37° C. until used.
BD Phosflow perm buffer III: Keep on ice/fridge.

Compound | IC50 [nM]
CNC(=O)Nc1cnn2c(NC)cc(Nc3cccc4c3N(C)CCO4)nc12 [Compound 163, 1-methyl-3-(5-((4-methyl-3,4-dihydro-2H-benzo[b][1,4]oxazin-5-yl)amino)-7-(methylamino)pyrazolo[1,5-a]pyrimidin-3-yl)urea] | 1000 to 10000
CNC(=O)Nc1cnn2c(NC)cc(-c3cn(C4CCOCC4)c4ncccc34)nc12 [Compound 80, 1-methyl-3-(7-(methylamino)-5-(1-(tetrahydro-2H-pyran-4-yl)-1H-pyrrolo[2,3-b]pyridin-3-yl)pyrazolo[1,5-a]pyrimidin-3-yl)urea] | < 1000
CNc1cc(Nc2cc(F)cc3c2OCCO3)nc2c(NC(=O)N[C@@H]3C[C@H]3F)cnn12 [Compound 187, 1-(5-((7-fluoro-2,3-dihydrobenzo[b][1,4]dioxin-5-yl)amino)-7-(methylamino)pyrazolo[1,5-a]pyrimidin-3-yl)-3-((1R,2R)-2-fluorocyclopropyl)urea] | 1000 to 10000
CNc1cc(Nc2cc(F)cc3c2OCCO3)nc2c(NC(=O)NCCC(F)F)cnn12 [Compound 178, 1-(3,3-difluoropropyl)-3-(5-((7-fluoro-2,3-dihydrobenzo[b][1,4]dioxin-5-yl)amino)-7-(methylamino)pyrazolo[1,5-a]pyrimidin-3-yl)urea] | < 1000
CNC(=O)Nc1cnn2c(NC)cc(Nc3ccc(OC)cc3)nc12 [Compound 151, 1-(5-((4-methoxyphenyl)amino)-7-(methylamino)pyrazolo[1,5-a]pyrimidin-3-yl)-3-methylurea] | 1000 to 10000
CNc1cc(Nc2cccc3c2OCCO3)nc2c(NC(=O)N[C@@H]3C[C@@H]3F)c(C)nn12 [Compound 172, 1-(5-((2,3-dihydrobenzo[b][1,4]dioxin-5-yl)amino)-2-methyl-7-(methylamino)pyrazolo[1,5-a]pyrimidin-3-yl)-3-((1R,2S)-2-fluorocyclopropyl)urea] | ≥ 10000
[2H]C([2H])([2H])Nc1cc(-c2cn(C3CCOC3)c3ncccc23)nc2c(NC(=O)NC)cnn12 (stereo not drawn) [Compound 75, 1-methyl-3-(7-((methyl-d3)amino)-5-(1-(tetrahydrofuran-3-yl)-1H-pyrrolo[2,3-b]pyridin-3-yl)pyrazolo[1,5-a]pyrimidin-3-yl)urea] | < 1000
CNc1cc(Nc2cc(C(F)(F)F)cc3c2OCCO3)nc2c(NC(=O)NC3CC3)cnn12 [Compound 82, 1-cyclopropyl-3-(7-(methylamino)-5-((7-(trifluoromethyl)-2,3-dihydrobenzo[b][1,4]dioxin-5-yl)amino)pyrazolo[1,5-a]pyrimidin-3-yl)urea] | 1000 to 10000
CNC(=O)Nc1cnn2c(NC)cc(Nc3ccccc3OC(C)C)nc12 [Compound 162, 1-(5-((2-isopropoxyphenyl)amino)-7-(methylamino)pyrazolo[1,5-a]pyrimidin-3-yl)-3-methylurea] | 1000 to 10000
CNC(=O)Nc1cnn2c(NC)cc(Nc3cc(C(F)(F)F)cc4c3OCCO4)nc12 [Compound 76, 1-methyl-3-(7-(methylamino)-5-((7-(trifluoromethyl)-2,3-dihydrobenzo[b][1,4]dioxin-5-yl)amino)pyrazolo[1,5-a]pyrimidin-3-yl)urea] | < 1000
CNc1cc(Nc2cccc3nccnc23)nc2c(NC(=O)NC3CC3O)cnn12 (stereo not drawn) [Compound 30, 1-(2-hydroxycyclopropyl)-3-(7-(methylamino)-5-(quinoxalin-5-ylamino)pyrazolo[1,5-a]pyrimidin-3-yl)urea] | ≥ 10000

Results, then the compound that gave them:

IC50 [nM] | Compound
< 1000 | [2H]C([2H])([2H])NC(=O)Nc1cnn2c(NC)cc(Nc3cccc4c3OCCO4)nc12 [Compound 144, 1-(5-((2,3-dihydrobenzo[b][1,4]dioxin-5-yl)amino)-7-(methylamino)pyrazolo[1,5-a]pyrimidin-3-yl)-3-(methyl-d3)urea]
< 1000 | CNc1cc(Nc2cccc3c2OCCO3)nc2c(NC(=O)NCC#N)cnn12 [Compound 102, 1-(cyanomethyl)-3-(5-((2,3-dihydrobenzo[b][1,4]dioxin-5-yl)amino)-7-(methylamino)pyrazolo[1,5-a]pyrimidin-3-yl)urea]
< 1000 | [2H]C([2H])([2H])Nc1cc(Nc2cccc3c2OCCO3)nc2c(NC(=O)N[C@@H]3C[C@@H]3F)cnn12 [Compound 40, 1-(5-((2,3-dihydrobenzo[b][1,4]dioxin-5-yl)amino)-7-((methyl-d3)amino)pyrazolo[1,5-a]pyrimidin-3-yl)-3-((1R,2S)-2-fluorocyclopropyl)urea]
< 1000 | CNc1cc(Nc2cccc3c2OCCO3)nc2c(NC(=O)NC3CC(=O)C3)cnn12 [Compound 36, 1-(5-((2,3-dihydrobenzo[b][1,4]dioxin-5-yl)amino)-7-(methylamino)pyrazolo[1,5-a]pyrimidin-3-yl)-3-(3-oxocyclobutyl)urea]
< 1000 | CNc1cc(Nc2cccc3c2OCCO3)nc2c(NC(=O)NC(C)C#N)cnn12 (stereo not drawn) [Compound 119, 1-(1-cyanoethyl)-3-(5-((2,3-dihydrobenzo[b][1,4]dioxin-5-yl)amino)-7-(methylamino)pyrazolo[1,5-a]pyrimidin-3-yl)urea]
1000 to 10000 | CNc1cc(Nc2cccc3c2OCCO3)nc2c(NC(=O)N[C@H]3CC[C@H]3O)cnn12 [Compound 59, 1-(5-((2,3-dihydrobenzo[b][1,4]dioxin-5-yl)amino)-7-(methylamino)pyrazolo[1,5-a]pyrimidin-3-yl)-3-((1S,2R)-2-hydroxycyclobutyl)urea]
< 1000 | CNc1cc(Nc2cccc3c2OCCO3)nc2c(NC(=O)NC3CCC3)cnn12 [Compound 93, 1-cyclobutyl-3-(5-((2,3-dihydrobenzo[b][1,4]dioxin-5-yl)amino)-7-(methylamino)pyrazolo[1,5-a]pyrimidin-3-yl)urea]
1000 to 10000 | CNc1cc(Nc2cccc3c2OCCO3)nc2c(NC(=O)NCCO)cnn12 [Compound 145, 1-(5-((2,3-dihydrobenzo[b][1,4]dioxin-5-yl)amino)-7-(methylamino)pyrazolo[1,5-a]pyrimidin-3-yl)-3-(2-hydroxyethyl)urea]
< 1000 | C#CCNC(=O)Nc1cnn2c(NC)cc(Nc3cccc4c3OCCO4)nc12 [Compound 101, 1-(5-((2,3-dihydrobenzo[b][1,4]dioxin-5-yl)amino)-7-(methylamino)pyrazolo[1,5-a]pyrimidin-3-yl)-3-(prop-2-yn-1-yl)urea]
< 1000 | CNC(=O)Nc1cnn2c(NC)cc(Nc3cccc4c3OCCCO4)nc12 [Compound 169, 1-(5-((3,4-dihydro-2H-benzo[b][1,4]dioxepin-6-yl)amino)-7-(methylamino)pyrazolo[1,5-a]pyrimidin-3-yl)-3-methylurea]
< 1000 | [2H]C([2H])([2H])Nc1cc(Nc2cccc3c2OCCO3)nc2c(NC(=O)NC)cnn12 [Compound 13, 1-(5-((2,3-dihydrobenzo[b][1,4]dioxin-5-yl)amino)-7-((methyl-d3)amino)pyrazolo[1,5-a]pyrimidin-3-yl)-3-methylurea]
< 1000 | CNC(=O)Nc1cnn2c(NC)cc(Nc3ccc(F)c4c3OCCO4)nc12 [Compound 142, 1-(5-((8-fluoro-2,3-dihydrobenzo[b][1,4]dioxin-5-yl)amino)-7-(methylamino)pyrazolo[1,5-a]pyrimidin-3-yl)-3-methylurea]
< 1000 | CNc1cc(Nc2cccc3c2OCCO3)nc2c(NC(=O)NCC(F)(F)F)cnn12 [Compound 99, 1-(5-((2,3-dihydrobenzo[b][1,4]dioxin-5-yl)amino)-7-(methylamino)pyrazolo[1,5-a]pyrimidin-3-yl)-3-(2,2,2-trifluoroethyl)urea]
